Assays:
[1] = target: T1, Hepatocyte nuclear factor 4-alpha (Rattus norvegicus) (UniProt P22449); experiment: Agonist activity at rat HNF4alpha1 expressed in African green monkey CV1 cells incubated for 24 hrs by firefly luciferase reporter gene assay relative to LG0100695; type: functional, cell-based; conditions: CV-1
T1 sequence (whole entry): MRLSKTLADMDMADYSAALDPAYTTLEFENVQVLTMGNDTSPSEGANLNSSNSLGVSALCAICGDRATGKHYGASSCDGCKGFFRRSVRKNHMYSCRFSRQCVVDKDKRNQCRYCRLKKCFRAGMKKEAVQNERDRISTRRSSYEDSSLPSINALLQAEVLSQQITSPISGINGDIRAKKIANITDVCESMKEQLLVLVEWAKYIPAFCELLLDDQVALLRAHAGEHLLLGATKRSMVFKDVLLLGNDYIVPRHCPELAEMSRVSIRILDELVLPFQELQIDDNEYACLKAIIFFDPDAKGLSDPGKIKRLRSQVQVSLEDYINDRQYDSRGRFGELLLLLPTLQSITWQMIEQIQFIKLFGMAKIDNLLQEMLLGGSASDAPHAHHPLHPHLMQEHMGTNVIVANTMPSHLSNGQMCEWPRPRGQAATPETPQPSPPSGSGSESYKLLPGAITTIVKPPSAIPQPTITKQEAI

[2] = target: T2, Hepatocyte nuclear factor 4-alpha (Rattus norvegicus, UniProt P22449); experiment: Agonist activity at rat HNF4alpha1 expressed in African green monkey CV1 cells incubated for 24 hrs by firefly luciferase reporter gene assay; type: functional, cell-based, CV-1
T2 sequence (P22449 whole entry): T1 sequence (whole entry)

[3] = target: T3, Retinoic acid receptor RXR-alpha (Homo sapiens, UniProt P19793); experiment: Displacement of [3H]9-cis-retinoic acid from RXRalpha (unknown origin) by radioligand binding assay
T3 sequence (P19793 whole entry): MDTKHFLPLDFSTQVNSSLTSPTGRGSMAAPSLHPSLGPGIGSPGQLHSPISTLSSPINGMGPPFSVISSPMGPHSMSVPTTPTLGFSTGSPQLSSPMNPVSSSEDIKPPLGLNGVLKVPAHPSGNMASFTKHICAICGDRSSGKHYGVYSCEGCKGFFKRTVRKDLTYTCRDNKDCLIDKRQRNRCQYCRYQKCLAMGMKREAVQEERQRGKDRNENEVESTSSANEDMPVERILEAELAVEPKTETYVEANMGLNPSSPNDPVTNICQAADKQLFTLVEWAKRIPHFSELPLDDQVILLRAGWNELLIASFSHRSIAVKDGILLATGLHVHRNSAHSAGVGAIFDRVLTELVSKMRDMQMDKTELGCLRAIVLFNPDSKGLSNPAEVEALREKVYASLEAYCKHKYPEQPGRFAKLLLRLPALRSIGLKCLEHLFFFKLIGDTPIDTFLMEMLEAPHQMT

[4] = target: T4, Hepatocyte nuclear factor 4-alpha (Homo sapiens, UniProt P41235); experiment: Displacement of [3H]methyl4-[5,6,7,8-tetrahydro-5,5,8,8-tetramethyl-3-ethyloxy-2-naphthalenyl]benzoyl benzoate from HNF4alpha (unknown origin) by radioligand binding assay
T4 sequence (P41235 whole entry): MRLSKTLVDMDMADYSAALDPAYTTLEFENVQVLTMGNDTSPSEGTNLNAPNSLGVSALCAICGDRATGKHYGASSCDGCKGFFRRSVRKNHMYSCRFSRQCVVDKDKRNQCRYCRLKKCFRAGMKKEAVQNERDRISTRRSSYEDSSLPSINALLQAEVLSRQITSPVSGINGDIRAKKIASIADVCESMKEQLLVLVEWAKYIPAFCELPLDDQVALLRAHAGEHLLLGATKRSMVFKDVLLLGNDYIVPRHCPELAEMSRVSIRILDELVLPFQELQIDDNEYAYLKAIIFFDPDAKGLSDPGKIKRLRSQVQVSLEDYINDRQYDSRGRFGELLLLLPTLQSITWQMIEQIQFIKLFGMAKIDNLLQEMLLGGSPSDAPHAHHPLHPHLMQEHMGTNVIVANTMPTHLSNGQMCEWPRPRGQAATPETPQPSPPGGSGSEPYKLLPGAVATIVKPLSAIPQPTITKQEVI

[5] = target: T2, Hepatocyte nuclear factor 4-alpha; experiment: Antagonist activity against rat HNF4alpha1 expressed in African green monkey CV1 cells assessed as reduction in endogenous agoinst-induced luciferase expression incubated for 24 hrs by firefly luciferase reporter gene assay; type: functional, cell-based, CV-1
[6] = target: T1, Hepatocyte nuclear factor 4-alpha (Rattus norvegicus); experiment: Antagonist activity against rat HNF4alpha1 expressed in African green monkey CV1 cells assessed as reduction in endogenous agoinst-induced luciferase expression incubated for 24 hrs by firefly luciferase reporter gene assay relative to control; type: functional, cell-based; conditions: CV-1

Efficacy [1] [%] | EC50 [2] [nM] | Ki [3] [nM] | Ki [4] [nM] | IC50 [5] [nM] | Efficacy [6] [%] | Structure (SMILES)
42 | 2850 | > 30000 | 4600 |  |  | COc1c(C(=O)c2ccc(C(=O)O)cc2)cc2c(c1C)N(C)CCC2(C)C
 |  | > 30000 | 5210 | 22 | 121 | Cc1ccc(S(=O)(=O)Nc2c(C)c(Cc3ccc(C(=O)O)cc3)cc3c2C(C)(C)CCC3(C)C)cc1
95 | 1140 | > 10000 | 364 |  |  | CCOc1cc2c(cc1C(=O)c1ccc(C(=O)C(=O)O)cc1)C(C)(C)CCC2(C)C
 |  | 1900 | 322 | 1 | 120 | CCCCCCO/N=C(\c1ccc(C(=O)O)cc1)c1cc2c(cc1OCC)C(C)(C)CCC2(C)C
68 | 2240 | 3000 | 721 |  |  | CCOc1cc2c(cc1C(=O)c1ccc(C(=O)O)cc1)C(C)(C)CCO2
 |  | > 30000 | 966 | 35 | 118 | CCOc1cc2c(cc1/C(=N/OCc1cccc(F)c1F)c1ccc(C(=O)O)cc1)C(C)(C)CCC2(C)C
 |  | > 30000 | 1010 | 19 | 103 | Cc1ccc(C)c(N/N=C(\c2ccc(C(=O)O)cc2)c2cc3c(cc2C)C(C)(C)CCC3(C)C)c1
57 | 594 | > 10000 | 163 |  |  | CC1(C)CCC(C)(C)c2c1cc(C(=O)c1ccc(C(=O)O)cc1)c(OCC(F)F)c2[N+](=O)[O-]
 |  | 5200 | 580 | 4 | 106 | Cc1cc2c(cc1C(OCc1ccccc1F)c1ccc(C(=O)O)cc1)C(C)(C)CCC2(C)C (stereo unspecified)
43 | 2230 | > 5000 | 165 |  |  | Cc1c(C(=O)c2ccc(C(=O)O)cc2)cc2c(c1[N+](=O)[O-])C(C)(C)CCC2(C)C
 |  | 2700 | 339 | 4 | 108 | CCCCOC(c1ccc(C(=O)O)cc1)c1cc2c(cc1OCC)C(C)(C)CCC2(C)C (stereo unspecified)
100 | 263 | 824 | 110 |  |  | CCOc1cc2c(cc1C(=O)c1ccc(C(=O)O)cc1)C(C)(C)CCC2(C)C
 |  | 4600 | 244 | 3 | 119 | CCOc1cc2c(cc1/C(=N/OCCC(C)C)c1ccc(C(=O)O)cc1)C(C)(C)CCC2(C)C
 |  | 6500 | 1400 |  |  | Cc1cc2c(cc1C(NCc1cccc(F)c1)c1ccc(C(=O)O)cc1)C(C)(C)CCC2(C)C (stereo unspecified)
 |  | 3000 | 1190 |  |  | Cc1cc2c(cc1C(OCc1ccc(SC(F)(F)F)cc1)c1ccc(C(=O)O)cc1)C(C)(C)CCC2(C)C (stereo unspecified)
88 | 2950 | > 30000 | 2200 |  |  | Cc1c(C(=O)c2ccc(C(=O)O)cc2)cc2c(c1[N+](=O)[O-])OCCC2(C)C
33 | 2190 | 1500 | 96 |  |  | CC1(C)CCC(C)(C)c2cc(C(=O)c3ccc(C(=O)O)cc3)c(OCC(F)(F)F)cc21
 |  | > 10000 | 514 | 103 | 100 | CC1(C)CCC(C)(C)c2cc(/C(=N\Nc3ccccc3)c3ccc(C(=O)O)cc3)ccc21
 |  | 3000 | 215 | 1 | 110 | CCOc1cc2c(cc1/C(=N/Nc1cc(F)ccc1F)c1ccc(C(=O)O)cc1)C(C)(C)CCC2(C)C

Structure (SMILES) | Efficacy [1] [%] | EC50 [2] [nM] | Ki [3] [nM] | Ki [4] [nM] | IC50 [5] [nM] | Efficacy [6] [%]
Cc1cc2c(c(O)c1C(=O)c1ccc(C(=O)O)cc1)C(C)(C)CCC2(C)C | 103 | 2640 | > 30000 | 710 |  | 

From ChEMBL document CHEMBL3714714, “Hepatocyte nuclear factor 4alpha modulator compounds” (2005)
